According to US12208091B2, “Compounds for treatment of eye diseases associated with excessive vascularisation” (Active Biotech AB, priority 2019, dated 2025):

Key:
[1] = tested on: metastatic chemo naïve prostate cancer (mCRPC); conditions: randomized placebo controlled Phase 2 and 3 studies; cited from earlier work
[2] = tested on: Human retinal microvascular endothelial cells (HRMECs); assay: LPS-activated microglia-induced HRMEC tube formation (co-culture); type: cell-based
Description: The following experimental groups were included in the study: • Group 1: […] Sulforaphane (10 μM, positive control, anti-angiogenic effects) • Group 3: Aflibercept (“Eylea” 40 μg/ml, positive control, partial anti-angiogenic effects) • Group 4: […] Human retinal microvascular endothelial cells (HRMECs) were purchased from Neuromics (Cat #HEC09, Lot #2872) and cultured according to manufacturer's instructions in Endo-Growth media (Cat #EKG001, Lot #EKG0011902269) supplemented with Endothelial Growth Factor (Cat #EKG001, Lot #EGK00125) on AlphaBiocoat coated T25 flasks at 37° C. 5% CO2. […] Human microglia were seeded onto PLL coated cell culture inserts (Sarstedt, Cat #83.3932.040) at 103 000 cells/cm^2. […] The method for co-cultures of microglia and HRMECs was modified from protocol described by Ding et al. 2018 (Ding X, Gu R, Zhang M, Ren H, Shu Q, Xu G, Wu H. Microglia enhanced the angiogenesis, migration and proliferation of co-cultured RMECs. […] PMID: 30223824; PMCID: PMC6142340) and Ji Cho et al. 2019 (Ji Cho M, Yoon […], Park J, Lee J, Park J G, Cho Y L, Hun Kim J, Jang H, Park Y J, Lee S H, Min J K. Oxidative stress-mediated TXNIP loss causes RPE dysfunction. […] PMID: 31615975; PMCID: PMC6802648). Microglia was activated with LPS (100 ng/ml) in microglia complete growth media without FBS with simultaneous treatment of freshly prepared study compounds, Eylea and vehicle for 24 hours. HRMECs were incubated in basal Endo-Growth media for 24 hours before co-culturing. […] Media in microglia inserts containing LPS was replaced to corresponding freshly prepared study compounds, aflibercept and sulforaphane in basal Endo-Growth media. […] 5% CO2, stained with calcein-AM (5 μM) for 30 min and imaged using a fluorescence microscope (Leica Thunder 3D Tissue Imager, Leica Microsystems). Images were analyzed using the AngioTool software (Zudaire E, Gambardella L, Kurcz […] Computational Tool for Quantitative Analysis of Vascular Networks. PLOS ONE 6(11): e27385. https://doi.org/10.1371/journal.pone.0027385) for ImageJ (NIH public domain). Total tube area, tube length, density, lacunarity, and branching index (number of junctions and endpoints) were quantified. Images were analyzed using AngioTool software (NIH, Bethesda, MD; available in the public domain) for the following readouts: average vessels length, total vessels length, vessel area, vessels percentage area, total number of junctions, density of junctions, total number of endpoints, and mean lacunarity. […] Raw data for each of the readouts was plotted and analyzed by ordinary one-way ANOVA with Dunnett's multiple comparisons post-hoc test. […] Effect size data were analyzed by non-parametric Kruskal-Wallis test, with Dunn's multiple comparisons post-hoc test.

[3] = tested on: Human retinal microvascular endothelial cells (HRMECs); assay: Tube formation assay, combination with aflibercept (contemplated); type: cell-based; conditions: 0.01 and 0.1 μM combined with Aflibercept (30 nM)
Text: Microglia, especially activated microglia play important roles in angiogenesis and maintenance of vascular function haemostasis in the retinal microvasculature (Ding et al 2018). It is contemplated that a co-culture of human retinal microvasculature endothelial cells (HRMEC's) and human microglia from brain can be used to assess the effects of a compound of the disclosure, such as laquinimod, tasquinimod, ABR-215174 or ABR-215691, on neovascularization. A method such as the one outlined below may be used.
This study may be carried out substantially as outlined in Example 3.
Tube formation assay is performed using 24-well plate wells coated with Matrigel or in 96-wells as described Ding et al. 2018 (Ding et al. BMC Ophthalmology (2018) 18:249): A 96-well plate is coated with 50 μL/well Matrigel at 37° C. for 30 min. After co-culturing with microglia for 24 h, HRMECs are seeded on the Matrigel at 1.5×10^4 cells/well in 100 μL medium. After a period of time, for example 4 h, tube formation is observed and photographed with a microscope (Leica Microsystems). Images are analysed using the Angiotool plugin (Zudaire et al., 2011, PLoS one, 6, 11, e27385) for ImageJ (NIH public domain). Total tube area, tube length, density, lacunarity, and branching index (number of junctions and endpoints) are quantified.

[4] = tested on: bFGF induced corneal vascularisation; assay: bFGF induced corneal vascularisation (pellet in corneal pocket), area of neovascularisation; type: in vivo, C57BL/6 mice
[5] = tested on: VEGF induced corneal vascularisation; assay: VEGF induced corneal vascularisation (pellet in corneal pocket), area of neovascularisation; type: in vivo, C57BL/6 mice; parameters: Area of vasc.: unit not given beside the values
Description: The area of the neovascularisation can be measured using the formula: Area=0.2·VL·CH·π wherein vessel length (VL) and continuous circumferential zone (in clock hours=CH) are measured as defined in FIG. 1. Treatment with Laquinimod of VEGF Induced Corneal Vascularisation
Hydron pellets for induction of vascularisation were prepared from stimulant (VEGF) and binding agent (sucralfate).
53 CR female C57BL/6 mice aged 6 to 8 weeks were prepared for surgery by anesthetising with 90 mg/kg of pentobarbital, ip. Corneal vascularisation was induced by placement of a pellet in a corneal pocket cut in one eye. Signs for ocular irritation or infection were carefully monitored.
[…] Vascularisation was measured on day 8.

[6] = tested on: choroidal neovascularisation; assay: Laser-induced choroidal neovascularisation rat model, fluorescein angiography leakage score; type: in vivo, Brown Norway pigmented rats; parameters: key to Mean score of fluorescein leakage: 0 = no leakage, 1 = slight, 2 = moderate, 3 = strongly stained; conditions: Per os 0.5 mg/kg 1×/day
Description: Forty-eight (48) Brown Norway pigmented rats were divided into six (6) groups of eight (8) animals. Choroidal neovascularization was induced using a 532 nm argon laser photocoagulator (six (6) 75 μm-sized spots at 150 mW for 0.1 sec duration) in the right eyes on Day 0. The test item was administered three times a day by instillation or twice a day by oral administration from Day 0 (DO) just after ChNV induction to Day 21 (last day of the study). Control item (vehicle) was instilled three times a day and the reference item (Dexamethasone in olive oil) was administered by daily oral administration from the Day 0 just after induction of neovascularization to Day 21. Fundus neovessels were evaluated in the right eyes on Days 14 and 21 using Heidelberg's Retinal Angiograph (HRA). Lesion size was determined on choroid flatmounts labelled with Isolectin-B4 at the end of the in vivo period.
On Day 0, animals were anesthetized by an intramuscular injection of a mix of xylazine (5 mg/kg) and ketamine (25 mg/kg). Pupils from the right eyes were dilated by instillation of one drop of 0.5% tropicamide. Then, six (6) choroidal burns (75 μm spot size) were done through a slit-lamp, with a contact lens, around the optic disc, between the main vessel branches using an argon laser photocoagulator (532 nm; 150 mW; 0.1 sec duration). Production of a bubble at the time of laser treatment confirmed the rupture of Bruch's membrane.
Test, control, or reference items were administered topically by instillation (10 μL each) or by oral route (1 mL/kg) from Day 0 (just after the induction) to Day 21 (end of the study). Test and control items were administered three times a day (for instillation) and two times a day (for oral administration). Reference item was administered once a day by oral route.
Fluorescein angiography was performed on Days 14 and 21 using an HRA (Heidelberg's Retinal Angiograph). After anaesthesia (same mix used for ChNV induction) and pupillary dilation, 250 μL/100 g (body weight) of a 10% sodium fluorescein was injected subcutaneously using a 26-G insulin syringe, and fluorescein photos were recorded 10 minutes after dye injection.
The leakage of fluorescein on the angiograms were evaluated by two examiners in a masked fashion and graded as follows: • Score 0, no leakage; • Score 1, slightly stained; • Score 2, moderately stained; • Score 3, strongly stained.
Statistical analysis, using Mann-Whitney U test or appropriate statistical model, were performed on the scoring of lesions visualized by HRA from each animal and on the scoring of the flat mounted preparations.
The grading of fluorescein angiographies (FA) was based on the fluorescence intensity for each lesion. For each treatment group, results were expressed as the group mean score per time-point. Table 1 summarises the evaluation of FA recorded at 10 min on Days 14 and 21 (n=8 animals per group, right eyes). A statistical analysis was performed on the median of the individual intensity scores, using a Kruskall-Wallis test followed by a Mann & Whitney U multiple comparison test, which was used to compare each test, control or reference group.

[7] = Animal body weight in the ChNV rat study; type: in vivo, Brown Norway pigmented rats; conditions: during the study, oral 0.5 mg/kg 1×/day
Description: The body weight of all animals was recorded before the start of the study, then once every week.
Animal body weights were recorded before induction and treatment (baseline) and then once a week. Animal body weights were within the normal range at the baseline: 166-202 g (min−max, n=48). On Day 21, no significant difference between test and control items was observed. […] This loss is an expected adverse effect of orally dosed corticosteroid.

[8] = group 2: 5 mg/kg po qd ×5, measured day 6
[9] = group 2: 5 mg/kg ip qd ×7, measured day 8

Q: Which “Disease progression (primary endpoint)” value [1] does the source give for COc1cccc2c1c(O)c(C(=O)N(C)c1ccc(C(F)(F)F)cc1)c(=O)n2C [tasquinimod] here?
A: Its value is “significantly delayed”.

Q: For C[S+]([O-])CCCCN=C=S (stereo not shown) [sulforaphane, reference compound], which “Normalized effect size on average vessel length” value (shortened to “Normalized effect size”) ([2]; 10 μM, positive control, set to 100% by normalisation (vehicle 0%)) is on record?
A: The value was 100%.

Q: For Cn1c(=O)c(C(=O)Nc2ccccc2)c(O)c2c(Cl)cccc21 [ABR-215174, 5-chloro-4-hydroxy-1-methyl-2-oxo-1,2-dihydroquinoline-3-carboxylic acid phenylamide], which “effect on tube formation of combination compared to each compound used as monotherapy” value [3] is on record?
A: The value was “clear additive effect”.

Q: And the “Normalized effect size” value ([2]; 0.1 μM, normalised to vehicle 0%, sulforaphane 100%)?
A: Its value is 88.2%.

Q: What does the source list for CCN(CC)CCNC(=O)c1c(C)[nH]c(/C=C2\C(=O)Nc3ccc(F)cc32)c1C [Sutent, reference compound]?
A: Inhibition of corneal vascularisation induced by bFGF ([4]; 40 mg/kg): 80%; Area of vasc. [4, 8]: 0.72 ± 0.08; Area percent of positive control [4, 8]: 20%

Q: Which “Inhibition of corneal vascularisation induced by VEGF” value ([5]; 5 mg/kg (reference)) does the source give for “Avastin: Bevacizumab (Avastin) is an IgG1-based antibody which binds VEGF-A; positive control” here?
A: The value was 100%.

Q: What about the Area of vasc. [5, 9] of the same molecule?
A: Its Area of vasc. is 0.00 ± 0.00.

Q: What about the “Area percent of positive control” value [5, 9] of the same molecule?
A: Its value is 0%.

Q: For “Eylea: recombinant protein aflibercept (Eylea) with affinity for VEGF-A, VEGF-B, and PGF”, which “Normalized effect size” value ([2]; 40 μg/ml, normalised to vehicle 0%, sulforaphane 100%) is on record?
A: The value was 18%.

Q: Which “% of reduction vs respective vehicle” value ([6]; Day 14) does the source give for C[C@@H]1C[C@H]2[C@@H]3CCC4=CC(=O)C=C[C@]4(C)[C@@]3(F)[C@@H](O)C[C@]2(C)[C@@]1(O)C(=O)CO [Dexamethasone, reference compound] here?
A: The value was 71%.

Q: And the “Mean score of fluorescein leakage” value ([6]; Day 14)?
A: The value was 0.7.

Q: And the “% of reduction vs respective vehicle” value ([6]; Day 21)?
A: Its value is 73%.

Q: And the “Mean score of fluorescein leakage” value ([6]; Day 21)?
A: The value was 0.8.

Q: What about the body weight loss [7] of the same molecule?
A: Its body weight loss is 21%.
